Experimental data reported in ChEMBL document CHEMBL1133177, “Application of similarity matrices and genetic neural networks in quantitative structure-activity relationships of 2- or 4-(4-Methylpiperazino)pyrimidines: 5-HT(2A) receptor antagonists” (J Med Chem, 2000).

Legend:
[1] = target: T1, 5-hydroxytryptamine receptor 2A (Rattus norvegicus, UniProt P14842); assay: Affinity for 5-hydroxytryptamine 2A receptor in rat brain cortex by ability to displace [3H]ketanserin; assay type: tissue-based
T1 sequence (P14842 whole entry): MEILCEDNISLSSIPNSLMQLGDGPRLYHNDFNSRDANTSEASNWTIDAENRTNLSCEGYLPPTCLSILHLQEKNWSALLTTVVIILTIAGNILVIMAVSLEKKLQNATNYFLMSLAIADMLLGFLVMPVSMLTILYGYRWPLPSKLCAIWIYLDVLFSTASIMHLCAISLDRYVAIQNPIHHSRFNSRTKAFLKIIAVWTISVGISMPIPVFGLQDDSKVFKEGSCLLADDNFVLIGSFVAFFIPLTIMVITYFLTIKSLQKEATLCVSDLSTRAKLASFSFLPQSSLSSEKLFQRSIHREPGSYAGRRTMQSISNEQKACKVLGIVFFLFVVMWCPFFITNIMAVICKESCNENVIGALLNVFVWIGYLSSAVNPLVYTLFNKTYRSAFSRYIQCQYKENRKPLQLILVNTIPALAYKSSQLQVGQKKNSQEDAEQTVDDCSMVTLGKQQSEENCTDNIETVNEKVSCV

[2] = target: T1, 5-hydroxytryptamine receptor 2A; assay: Affinity 5-hydroxytryptamine 2A receptor of the rat brain cortex was assessed on the basis of their ability to displace [3H]ketanserin
[3] = target: T1, 5-hydroxytryptamine receptor 2A; assay: (§1) Affinity at 5-hydroxytryptamine 2A receptor of the rat brain cortex was assessed on the basis of their ability to displace [3H]ketanserin
[4] = target: T1, 5-hydroxytryptamine receptor 2A; assay: as §1; remark: listed apart in the source

Ki [1]	Ki [2]	Ki [3]	Ki [4]	Structure (SMILES)
55 nM				CN1CCN(c2nc(-c3ccoc3)cc(-c3cc4ccccc4s3)n2)CC1
20.9 nM				CN1CCN(c2nc(-c3ccsc3)cc(-c3cccs3)n2)CC1
40.7 nM	41 nM			CN1CCN(c2nc(Cl)cc(-c3ccoc3)n2)CC1
		4220 nM	4270 nM	Cc1ccc(-c2cc(N3CCN(C)CC3)nc(Cl)n2)cc1
37.2 nM				CN1CCN(c2nc(-c3ccco3)cc(-c3cccs3)n2)CC1
		353 nM	347 nM	CN1CCN(c2nc(Cl)cc(-c3cccs3)n2)CC1
191 nM				CN1CCN(c2nccc(-c3ccsc3)n2)CC1
575 nM	582 nM			Cc1ccc(-c2cc(Cl)nc(N3CCN(C)CC3)n2)cc1

Further lines, the compound ahead of its results:

Structure (SMILES)	Ki [1]	Ki [2]	Ki [3]	Ki [4]
CN1CCN(c2nc(-c3ccco3)cc(-c3cc4ccccc4o3)n2)CC1	110 nM			
CN1CCN(c2nc(-c3ccco3)cc(-c3cc4ccccc4s3)n2)CC1	37.2 nM			
CN1CCN(c2cc(-c3ccco3)nc(Cl)n2)CC1			5960 nM	6030 nM
CN1CCN(c2cc(-n3ccnc3)ncn2)CC1			> 10000 nM	> 10000 nM
Cc1c(-c2cccs2)nc(N2CCN(C)CC2)nc1-c1cccs1	17 nM			
CN1CCN(c2cc(-c3cccs3)nc(Cl)n2)CC1			2720 nM	2690 nM
CN1CCN(c2nccc(-n3ccnc3)n2)CC1	380 nM	384 nM		
CN1CCN(c2nc(-c3cc4ccccc4o3)cc(-c3cccn3C)n2)CC1	135 nM			
